Earlier results, collected in publication PMC3090270 (Structure (London, England : 1993), 2010).

Columns and labels:
[1] = system: RI subunits; details: ref Huang et al., 1997b (D-AKAP1), 1997a (D-AKAP2), Reinton et al., 2000 (AKAP220), Gronholm et al., 2003 (Merlin), Li et al., 2001 (Pap7)
[2] = system: cardiac myocytes; details: H2O2 treatment, ref Brennan et al., 2006

Molecule | binding to RI subunits (dual-specific) [1] | disulfide formation in RIα D/D [2] | nuclear localization of PKA [2]
AKAP220: dual-specific AKAP | bind RI subunits |  | 
OO [H2O2] |  | increased disulfide bond formation | nuclear localization of PKA
